Measurements reported in article PMC3479139, “Diverse Small Molecule Inhibitors of Human Apurinic/Apyrimidinic Endonuclease APE1 Identified from a Screen of a Large Public Collection” (PLoS ONE, 2012).
pIC50: −log10 of the molar value.

Columns and labels:
[1] = biological target: T1, APE1 (Homo sapiens, UniProt P27695); test: Fluorogenic kinetic qHTS APE1 incision assay (primary screen and retest of cherrypicked samples); assay type: biochemical;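 note: purified APE1 cleaving a fluorophore/dark-quencher labelled 17-mer duplex DNA bearing a tetrahydrofuran AP site, fluorescence rise followed kinetically over the first 2 min, inhibition normalized to controls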
T1 construct: made in house
Experimental: All screening operations were performed on a fully integrated robotic system (Kalypsys, San Diego, CA) [28] with library plates screened proceeding from the lowest to the highest concentration to minimize compound carryover [26]. Vehicle-only plates, with DMSO being pin-transferred to the entire column 5–48 compound area, were included regularly throughout the screen in order to record any systematic shifts in assay signal. During the screen, reagent bottles were kept at 4°C and all liquid lines were covered with aluminum foil to minimize degradation.
Screening data were corrected and normalized, and concentration–effect relationships was derived using in-house developed algorithms [25].
To screen for inhibitors of APE1 incision activity, we employed a purified-enzyme biochemical assay with a model substrate featuring a red-shifted fluorescent reporter in combination with a dark non-emitting quencher. These moieties were incorporated as end labels onto a 17-mer double-stranded DNA fragment containing a centrally-located tetrahydrofuran AP site sugar mimetic, which serves as the APE1 cleavage site. Upon APE1-catalyzed strand scission immediately 5′ to the AP site analog, the shortened oligodeoxynucleotide carrying the fluorescent reporter spontaneously dissociates from the rest of the substrate, leading to an increase in fluorescence due to its spatial separation from the dark quencher (Figure 1A).
Using a high-speed whole-plate fluorescence imager, the assay data for the entire screen was conducted in kinetic mode, with the APE1 incision reaction being monitored over the initial linear time frame of 2 min (Figure 1B). Thus, any inhibition associated with each sample was computed from the alteration in fluorescence intensity over the time-course measurement period, after normalization against the appropriate controls (Figure 1B, inset).

[2] = biological target: T1, APE1; test: Gel-based APE1 incision assay with fluorescence (TAMRA) detection; assay type: biochemical
[3] = biological target: T1, APE1; test: Fluorescence polarization (FP) displacement assay of APE1 binding to AP-DNA probe; settings: read-out: FP IC50;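 note: TAMRA 5′-labeled duplex DNA with THF abasic site (5 nM) and APE1 (20 nM), Mg2+-free buffer, 15 min at room temperature, inhibition seen as lowered polarization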
[4] = biological target: double-stranded 17-mer DNA fragment; test: ThO (Thiazole Orange) DNA displacement assay; assay type: binding; settings: read-out: ThO-DNA binding IC50;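 note: miniaturized displacement of the intercalating dye from unlabeled duplex DNA, used to flag nonspecific DNA binders, chiefly intercalators, groove binders may be missed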
[5] = biological target: T2, E. coli Endo IV (Escherichia coli, UniProt P0A6C1); test: E. coli Endo IV profiling counterscreen; assay type: biochemical; settings: read-out: EndoIV IC50;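 note: selectivity counterscreen of candidate APE1 inhibitors against the bacterial endonuclease Endo IV, run in the same assay format as the primary APE1 high-throughput screen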
T2 construct: made in house
Text: In order to screen out nonselective compounds, such as non-specific DNA binders and inhibitors of related enzymes, we used a miniaturized ThO DNA displacement assay and a counterscreen against the bacterial endonuclease E. coli Endo IV, respectively, following the previously published protocols [21].
To probe the selectivity of the candidate APE1 inhibitors, we tested them against E. coli EndoIV [36], employing the same assay as used in the HTS.

[6] = initial quantitative high-throughput screen, read-out: APE1 qHTS IC50
[7] = retest of cherrypicked sample, read-out: APE1 Retest IC50
[8] = entries 113-223: fluorophore detection, estimated IC50, read-out: Gel-based electrophoretic separation assay with fluorophore detection, estimated IC50 (column headed Radiotracer Assay (%Activity))
[9] = estimated IC50, fluorophore detection, entries 113-223, read-out: F-PAGE Assay IC50

T1 sequence (P27695 whole entry): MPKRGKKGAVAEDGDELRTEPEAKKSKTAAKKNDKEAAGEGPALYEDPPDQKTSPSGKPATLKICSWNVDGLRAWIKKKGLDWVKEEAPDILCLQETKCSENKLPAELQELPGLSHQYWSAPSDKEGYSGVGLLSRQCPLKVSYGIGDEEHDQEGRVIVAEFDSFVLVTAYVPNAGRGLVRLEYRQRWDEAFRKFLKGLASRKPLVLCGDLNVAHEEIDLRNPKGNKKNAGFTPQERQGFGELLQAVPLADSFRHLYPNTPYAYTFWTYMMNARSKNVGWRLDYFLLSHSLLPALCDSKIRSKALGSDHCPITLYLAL

CSCC[C@H](NS(=O)(=O)c1ccc(C(C)=O)cc1)c1nnc2ccccn12 [MLS001158971]
pIC50 [1, 6]: 4.67 | pIC50 [1, 7]: 5.04 | pIC50 [2, 8]: 4.65 | pIC50 [3]: < 4.24 | pIC50 [4]: < 4.24 | pIC50 [5]: < 4.24

CCCCN(C(=O)c1cccc(-n2cccc2)c1)c1c(N)n(Cc2ccccc2)c(=O)[nH]c1=O [MLS001159279]
pIC50 [1, 6]: 5.57 | pIC50 [1, 7]: 4.89 | pIC50 [2, 9]: 5.55 | pIC50 [3]: < 4.24 | pIC50 [4]: < 4.24 | pIC50 [5]: < 4.24

N#Cc1c(NC(=O)COC(=O)c2ccc(O)cc2O)sc2c1CCC2 [MLS001159876]
pIC50 [1, 6]: 4.92 | pIC50 [1, 7]: 4.74 | pIC50 [2, 8]: 4.95 | pIC50 [3]: < 4.24 | pIC50 [4]: 4.94 | pIC50 [5]: < 4.24

Cc1ccc(C)c(NC(=O)CN(C)C(=O)c2cccc(-n3cccc3)c2)c1 [MLS001161412]
pIC50 [1, 6]: 5.52 | pIC50 [1, 7]: 5.24 | pIC50 [2, 9]: 5.55 | pIC50 [3]: 4.89 | pIC50 [4]: < 4.24 | pIC50 [5]: 4.79

COc1ccc(S(=O)(=O)N2CCOCC2)cc1NC(=O)c1cccc(-n2cccc2)c1 [MLS001161521]
pIC50 [1, 6]: 5.42 | pIC50 [1, 7]: 5.14 | pIC50 [2, 9]: 5.35 | pIC50 [3]: < 4.24 | pIC50 [4]: < 4.24 | pIC50 [5]: < 4.24

NS(=O)(=O)c1cccc(NC(=O)c2ccc3nc[nH]c3c2)c1 [MLS001177378]
pIC50 [1, 6]: 4.57 | pIC50 [1, 7]: 4.34 | pIC50 [2, 8]: 4.90 | pIC50 [3]: < 4.24 | pIC50 [4]: 4.49 | pIC50 [5]: < 4.24

CCOC(=O)C1=C(C)N=c2s/c(=C\c3ccc(OCC(=O)O)cc3)c(=O)n2C1c1ccc(Cl)cc1 (stereo not drawn) [MLS001178472]
pIC50 [1, 6]: 4.97 | pIC50 [1, 7]: 4.84 | pIC50 [2, 8]: 4.95 | pIC50 [3]: < 4.24 | pIC50 [4]: < 4.24 | pIC50 [5]: < 4.24

CC1=C(C(=O)OC(C)C)C(c2ccc(Cl)cc2)n2c(s/c(=C\c3ccc(OCC(=O)O)cc3)c2=O)=N1 (stereo not drawn) [MLS001178474]
pIC50 [1, 6]: 5.17 | pIC50 [1, 7]: 5.29 | pIC50 [2, 9]: 5.85 | pIC50 [3]: < 4.24 | pIC50 [4]: 4.99 | pIC50 [5]: < 4.24

O=C(Nc1ccc2oc(-c3ccccc3F)nc2c1)c1ccc([N+](=O)[O-])o1 [MLS001194759]
pIC50 [1, 6]: 5.57 | pIC50 [1, 7]: 5.49 | pIC50 [2, 9]: 5.60 | pIC50 [3]: < 4.24 | pIC50 [4]: 4.99 | pIC50 [5]: < 4.24

Nc1c(S(=O)(=O)O)cc(NC(=O)c2ccccc2)c2c1C(=O)c1ccccc1C2=O [MLS001194971]
pIC50 [1, 6]: 4.67 | pIC50 [1, 7]: 4.74 | pIC50 [2, 9]: 5.10 | pIC50 [3]: < 4.24 | pIC50 [4]: < 4.24 | pIC50 [5]: < 4.24

c1ccc2c(NCCc3c[nH]c4ccccc34)c3ccccc3nc2c1 [MLS001195935]
pIC50 [1, 6]: 4.72 | pIC50 [1, 7]: 4.74 | pIC50 [2, 8]: 4.60 | pIC50 [3]: < 4.24 | pIC50 [4]: 4.49 | pIC50 [5]: < 4.24

O=C(O)c1ccc(-c2ccc(/C=c3/sc4nc5ccccc5n4c3=O)o2)cc1Cl [MLS001196440]
pIC50 [1, 6]: 5.02 | pIC50 [1, 7]: 5.14 | pIC50 [2, 9]: 5.15 | pIC50 [3]: < 4.24 | pIC50 [4]: 4.39 | pIC50 [5]: < 4.24

COc1ccc(Cl)cc1NC(=O)CCS(=O)(=O)c1ccc(Br)cc1 [MLS001202289]
pIC50 [1, 6]: 4.92 | pIC50 [1, 7]: 4.34 | pIC50 [2, 8]: 4.90 | pIC50 [3]: < 4.24 | pIC50 [4]: 4.34 | pIC50 [5]: < 4.24

COC(=O)c1cc(NC(=O)Cc2cccs2)cc(C(=O)OC)c1 [MLS001211293]
pIC50 [1, 6]: 4.87 | pIC50 [2, 9]: 5.15 | pIC50 [3]: < 4.24 | pIC50 [4]: < 4.24 | pIC50 [5]: < 4.24

COc1ccccc1N(CC(=O)NCc1ccco1)S(=O)(=O)c1ccc(C)cc1 [MLS001219746]
pIC50 [1, 6]: 4.67 | pIC50 [1, 7]: 4.79 | pIC50 [2, 9]: 5.05 | pIC50 [3]: < 4.24 | pIC50 [4]: < 4.24 | pIC50 [5]: < 4.24

NS(=O)(=O)c1cc(C(=O)NC2CCSc3ccccc32)ccc1Cl (stereo not drawn) [MLS001233727]
pIC50 [1, 6]: 7.00 | pIC50 [1, 7]: 6.52 | pIC50 [2, 9]: 7.00 | pIC50 [3]: < 4.24 | pIC50 [4]: < 4.24 | pIC50 [5]: < 4.24

CCNc1nc(NCC)n2c(SCC(=O)Nc3cccc(F)c3)nnc2n1 [MLS001234358]
pIC50 [1, 6]: 4.92 | pIC50 [1, 7]: 4.94 | pIC50 [2, 8]: 4.95 | pIC50 [2, 9]: 5.30 | pIC50 [3]: 4.74 | pIC50 [4]: < 4.24 | pIC50 [5]: 4.44

CCNc1nc(NCC)n2c(SCC(=O)Nc3ccc(OC(F)F)cc3)nnc2n1 [MLS001234379]
pIC50 [1, 6]: 4.97 | pIC50 [1, 7]: 4.94 | pIC50 [2, 9]: 5.15 | pIC50 [3]: < 4.24 | pIC50 [4]: < 4.24 | pIC50 [5]: < 4.24

CCNc1nc(NCC)n2c(SCC(=O)Nc3ccccc3C(F)(F)F)nnc2n1 [MLS001234389]
pIC50 [1, 6]: 4.67 | pIC50 [1, 7]: 4.89 | pIC50 [2, 8]: 4.85 | pIC50 [3]: < 4.24 | pIC50 [4]: < 4.24 | pIC50 [5]: < 4.24

O=C(CSc1nnc(CNC(=O)c2c(F)cccc2F)o1)NCc1ccco1 [MLS001235900]
pIC50 [1, 6]: 4.97 | pIC50 [1, 7]: 4.34 | pIC50 [2, 8]: 4.90 | pIC50 [3]: 4.74 | pIC50 [4]: < 4.24 | pIC50 [5]: < 4.24
